Reference: patent US20250368664A1, “SURFACTANTS HAVING PEFA COMPOUNDS AND METHODS OF USE THEREOF” (Ruby Bio Inc., priority 2022, published 2025)

Test: Solubility of nonionic surfactant in SDBS
Type: physicochemical
Settings: in combination with SDBS at the stated ratio

- solubility in SDBS: insoluble
Substance: cetearyl glucoside [CGlucoside]
